Structures are written as SMILES. pIC50: −log10 of the molar value.

Results on three compounds are retold here after US12440571B2, “Immune agonists” (SHENZHEN UNIVERSITY, priority 2020, dated 2025).

One test has as its target T1, TLR7 (Homo sapiens, UniProt Q9NYK1).
T1 construct: host or cells: HEK-Blue hTLR7 cells (HEK293-derived SEAP reporter line)
T1 sequence (Q9NYK1 27-1049): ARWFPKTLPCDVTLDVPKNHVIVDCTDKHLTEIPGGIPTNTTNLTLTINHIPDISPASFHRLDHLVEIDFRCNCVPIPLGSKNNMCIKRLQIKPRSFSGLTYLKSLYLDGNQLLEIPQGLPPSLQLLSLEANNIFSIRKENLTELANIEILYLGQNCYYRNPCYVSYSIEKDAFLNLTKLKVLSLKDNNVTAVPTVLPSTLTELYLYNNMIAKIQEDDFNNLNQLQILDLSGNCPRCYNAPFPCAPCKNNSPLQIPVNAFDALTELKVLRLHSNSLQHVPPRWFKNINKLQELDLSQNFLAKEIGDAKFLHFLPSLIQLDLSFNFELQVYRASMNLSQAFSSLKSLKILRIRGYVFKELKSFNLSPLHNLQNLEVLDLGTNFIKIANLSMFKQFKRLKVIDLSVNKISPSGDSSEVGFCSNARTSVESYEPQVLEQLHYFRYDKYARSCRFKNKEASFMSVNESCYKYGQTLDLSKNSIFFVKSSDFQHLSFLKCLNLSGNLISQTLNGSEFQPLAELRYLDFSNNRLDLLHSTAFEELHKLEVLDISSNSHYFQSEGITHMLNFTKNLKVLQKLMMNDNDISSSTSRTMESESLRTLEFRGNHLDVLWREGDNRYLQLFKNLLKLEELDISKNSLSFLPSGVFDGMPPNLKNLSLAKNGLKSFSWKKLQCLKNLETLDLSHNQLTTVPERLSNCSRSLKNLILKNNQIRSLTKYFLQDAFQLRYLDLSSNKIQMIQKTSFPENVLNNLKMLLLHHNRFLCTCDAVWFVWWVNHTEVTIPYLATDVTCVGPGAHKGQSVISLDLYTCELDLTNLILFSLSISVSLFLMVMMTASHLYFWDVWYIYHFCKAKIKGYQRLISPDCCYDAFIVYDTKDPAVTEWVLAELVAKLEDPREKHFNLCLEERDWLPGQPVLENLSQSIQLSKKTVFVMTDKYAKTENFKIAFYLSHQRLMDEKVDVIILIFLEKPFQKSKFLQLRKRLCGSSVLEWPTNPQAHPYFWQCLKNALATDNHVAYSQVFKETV
The test is described as follows: Detection of TLR7 activation (HEK-Blue Detection), SEAP reporter. The format is cell-based. As to conditions: HEK-Blue hTLR7 cells, 6-16 hrs, absorbance 650 nm; read-out: TLR7(EC50/μM). On the procedure:
HEK-Blue™hTLR7 cells (purchased from InvivoGen) in a logarithmic growth phase were taken, with a growth medium (Gibco, C11995500BT, Invivo Gen, ant-nr) discarded. The cells were gently rinsed twice by an appropriate amount of 37° C. PBS (Hyclone, SH30256.01), a rinsed PBS was discarded. Thereafter, the cells were added with 2-5 mL of 37° C. PBS, incubated for 1 to 2 minutes, and then scraped by a cell scraper and gently pipetted to be dispersed into a single cell suspension. A hemocytometer was adopted to count the cells and a cell concentration was calculated. After that, a HEK-Blue™ Detection solution (purchased from Invivo Gen) was adopted to adjust the cell concentration of the cell suspension to 2.5×10^4/180 μL per well for cell plating on a 96-well cell culture plate. The HEK-Blue™hTLR7 cells were stimulated according to the designed series of GY compound or drug concentrations (0.01 μM, 0.1 μM, 1 μM, 5 μM, 15 μM, and 30 μM), with 3 replicate wells for each concentration, and were incubated at 37° C., 5% carbon dioxide for 6-16 hrs. After the incubation, the absorbance value was read at 650 nm with a full-wavelength microplate reader (BioTek-Epoch), as listed in Table 2.
Relative induction=(average OD value of experimental group−average OD value of negative control group)/average OD value of negative control group.
Specific details for the above method may be referred to https: • //www.invivogen.com/hek-blue-htlr7; https://www.invivogen.com/sites/default/files/invivogen/products/files/hek_blue_htlr7_tds.pdf.

For test [1], the system named is murine colon cancer CT-26 cells. As to the kind of experiment: CCK8 growth inhibition, CT26. The format is cell-based. As to conditions: Mus musculus, CCK8 method, read-out: IC50 of inhibitory activity on tumor cell growth, CT26. For orientation: Tetrazolium assays rely on reduction of a dye to a coloured formazan, in cell work by metabolically active cells.

Consider `CCCCOc1nc(N)c2nc(O)n(Cc3cn(CCOCCOCCOCCNC(=S)Nc4cc(Nc5nccc(-c6cn(C)c7ccccc67)n5)c(OC)cc4N(C)CCN(C)C)nn3)c2n1` [GY127], for which the EC50 on TLR7 turned out to be 1.06 µM. Besides, the pIC50 (in general, the negative decadic logarithm of the IC50, by convention in mol/L) in test [1] is 4.77.
Turning to `CCCCOc1nc(N)c2nc(O)n(Cc3cn(CCOCCOCCOCCNC(=S)N4CCCC(n5nc(-c6ccc(Oc7ccccc7)cc6)c6c(N)ncnc65)C4)nn3)c2n1` (stereo not drawn) [GY112], the EC50 at TLR7 stood at 2.65 µM. For the same compound, the pIC50 in test [1] is 4.60.
As to `CCCCOc1nc(N)c2nc(O)n(Cc3cn(CCCCN4CCN(CCCNC(=S)N5CCCC(n6nc(-c7ccc(Oc8ccccc8)cc7)c7c(N)ncnc76)C5)CC4)nn3)c2n1` (stereo not drawn) [GY161], the EC50 on TLR7 stood at 3.86 µM. Further, the negative-log IC50 (pIC50) in test [1] is 5.21.
